The test system of test [1] is IKKα protein. In words: TPA-induced activation of IKKα (western blot). As to conditions: highest dose of Lupeol, 12 h time point. It is filed as in vivo, mouse. Here is the method: FIG. 6. Inhibitory effect of Lupeol on TPA-induced activation of IKKα, and phosphorylation and degradation of IκBα in CD-1 mice: At different times after treatment, the animals were sacrificed, epidermal cytosolic was prepared, and protein expression was determined. Equal loading was confirmed by stripping the immunoblot and reprobing it for β-actin. The immunoblots shown here are representative of three independent experiments with similar results. The values above each lane indicate relative density of the band normalized to β-actin.
The animals were shaved on the dorsal side of the skin, divided into four groups and treated topically on the shaved area with either 0.4 ml vehicle (acetone), or TPA (3.2 nmol/0.4 ml acetone/animal, v/v), or Lupeol (1 or 2 mg/0.2 ml acetone/animal, w/v) followed 30 min later with TPA (3.2 nmol/0.2 ml acetone/animal). […]
Epidermis from the whole skin was separated as described earlier (Katiyar et al., 1999) and was homogenized in ice-cold lysis buffer [50 mM Tris-HCl, 150 mM NaCl, 1 mM EGTA, 1 mM EDTA, 20 mM NaF, 100 mM Na3VO4, 0.5% NP-40, 1% Triton X-100, 1 mM PMSF (pH 7.4)] with freshly added protease inhibitor cocktail, Protease Inhibitor Cocktail Set III (Calbiochem, La Jolla, Calif., USA). […] The protein content in the lysates was measured by DC BioRad assay (BioRad Laboratories, Hercules, Calif.) as per the manufacturer's protocol. […]
Background: In western blotting, separated proteins are transferred to a membrane and probed.

In test [2] the test system is NFκB-DNA binding activity. The experiment in a line: NFκB-DNA binding by electrophoretic mobility shift assay (EMSA). The test is classed as in vivo. As to conditions: prior application of Lupeol to mouse skin. As for the experimental part:
(b) At different times after treatment, the animals were sacrificed, nuclear lysates were prepared, and DNA binding was determined by […] as described under ‘Materials and Methods’. C1, C2, and C3 refer to inter experimental controls, where C1 represents biotin-EBNA (epistein barr virus nuclear antigen) control DNA, C2 represents Biotin-EBNA control DNA and EBNA extract and C3 represents Biotin-EBNA control DNA and EBNA extract plus 200 fold molar excess of EBNA DNA.
Epidermis from the whole skin was separated as described earlier (Katiyar et al., 1999) and was homogenized in ice-cold lysis buffer [50 mM Tris-HCl, 150 mM NaCl, 1 mM EGTA, 1 mM EDTA, 20 mM NaF, 100 mM Na3VO4, 0.5% NP-40, 1% Triton X-100, 1 mM PMSF (pH 7.4)] with freshly added protease inhibitor cocktail, Protease Inhibitor Cocktail Set III (Calbiochem, La Jolla, Calif., USA). […] The protein content in the lysates was measured by DC BioRad assay (BioRad Laboratories, Hercules, Calif.) as per the manufacturer's protocol.
EMSA for NFκB was performed using Lightshift™ chemiluminescent EMSA kit (Pierce, Rockford, Ill., USA) by following the manufacturer's protocol. […] The biotin end-labeled DNA was detected using streptavidin-horseradish peroxidase conjugate and a chemiluminescent substrate. […]
On the technique in general: Mobility shift assays separate free from complexed probe on a gel.

In test [3] the test system is human PSA. In words: Serum PSA in athymic nude mice implanted with CWR22Rv1 cells. The test is classed as in vivo, mouse. The settings on record: Lupeol 1 mg/animal i.p. three times a week, vs control mice. An excerpt:
FIG. 19 depicts effect of Lupeol on human PSA levels in serum of athymic nude mice implanted with CWR22Rv1 cells. Data is represented as mean±SD. * indicates p<0.05.
CW22Rv1 cells once implanted in a xenograft mouse model releases Prostate specific antigen (PSA) in host system and grows rapidly than LNCaP cells. PSA is a well known diagnostic biomarker of prostate cancer.

`C=C(C)[C@@H]1CC[C@]2(C)CC[C@]3(C)[C@H](CC[C@@H]4[C@@]5(C)CC[C@H](O)C(C)(C)[C@@H]5CC[C@]43C)[C@@H]12` [Lupeol, Lup-20(29)-en-3β-ol]: the “inhibition in TPA induced activation of IKKα protein” value in test [1] is listed as about 95%. For the same compound, the “TPA-induced epidermal NFκB DNA binding activity” value in test [2] was “significantly inhibited”. In addition, the “serum PSA levels” value in test [3] is “lower serum PSA levels”.

The record behind these values is patent publication US8618082B2, “Lupeol anti-tumor agent and uses thereof” (Wisconsin Alumni Research Foundation, priority 2004, dated 2013).
